# Results: patent US5795859A (priority 1991, dated 1998)
# Ends that are not written are not given here.
# What was measured:
# [1] = test system: D-galactosamine sensitized mice; test: TNF toxicity in D-galactosamine sensitized mice; assay type: in vivo; details: 16 mg D-galactosamine and 2 μg human recombinant TNF i.p., peptide s.c.; survival up to 48 hours
# Procedure: The mice were then injected subcutaneously with either test peptide, phosphate buffered saline or neutralizing anti-TN? monoclonal antibody 47.
# mice = test: In vivo TNF toxicity, blood glucose and appearance; details: 10 μg of Peptide 2, 200 μg recombinant human TNF
# Procedure: Appearance parameters which were evaluated included ruffling of fur, touch sensitivity, presence of eye exudate, light sensitivity and diarrhoea.
# Nonfasting blood glucose levels were determined on a Beckman Glucose Analyzer 2 (Beckman Instruments) or on a Exectech blood glucose sensor (Clifford Hallam Pty. Ltd).
# [2] = test system: Meth A ascites tumour-bearing mice; test: LPS lethality in Meth A ascites tumour-bearing mice; assay type: in vivo; details: 500 μg E.coli LPS, peptide s.c.; survival up to 64 hours; * heightened activity
# Procedure: In LPS experiments polymyxin B, an LPS inhibitor, replaced MAb 47 as a positive control. The number of animals surviving was assessed at intervals up to 64 hours after LPS challenge.
# [3] = test system: bovine aortic endothelial cells
# Procedure: Endothelial cell procoagulant activity (PCA) induction by TNFα was determined using bovine aortic endothelial cells (BAE) according to the procedure of Bevilacqua et al., 1986 PNAS 83, 4522 with the following modifications: BAE cells were propagated in McCoys 5A medium supplemented with 10% FCS, penicillin, streptomycin and L-gutamine in standard tissue culture flasks and 24-well dishes. TNFα treatment of culture (3 μg/ml) was for 4 hours at 37° C. in the presence of growth medium after which the cells were washed and scrape-harvested before being frozen, thawed and sonicated. Total cellular PCA was determined in a standard one-stage clotting assay using normal donor platelet poor plasma to which 100 μl of CaCl2 and 100 μl of cell lystate was added. Statistical significance was determined by unpaired t-test.
# Procedure for human neutrophils: In these experiments, neutrophils were prepared from blood of healthy volunteers by the rapid single step method (Kowanko and Ferrante 1987 Immunol 62, 149). To 100 μl of 5×10^6 neutrophils/ml was added 100 μl of either 0, 10, 100 μg of peptide/ml and 800 μl of lucigenin (100 μg). The tubes were immediately placed into a light proof chamber (with a 37° C. water jacket incubator) of a luminometer (model 1250; LKB Instruments, Wallac, Turku, Finaldn). The resultant light output (in millivolts was recorded). The results are recorded as the maximal rate of chemiluminescence production.
Substance,IN VIVO TNF TOXICITY D-GAL [1],TNF toxicity as indicated by blood glucose changes (mice),IN VIVO LPS TOXICITY METH A [2],activation of the respiratory burst (human neutrophils),induction of procoagulant activity [3]
ARG THR PRO SER ASP LYS VAL PRO ALA HIS VAL VAL ALA (RTPSDKVPAHVVA; printed: ARG THR PRO SER ASP LYS VAL PRO ALA HIS VAL VAL ALA) [Peptide 2],+ (each group contains 10 animals: scored positive if 6 or more survive),abrogated TNF toxicity,,,
"Ac-PSDKPVA-NH2 [Peptide 29, Ac PRO SER ASP LYS PRO VAL ALA NH2]",,,+ (10 animals per group scored positive if 7 or more survive),,
"Ac-RTPSDKPVAHV-NH2 [Peptide 30, Ac ARG THR PRO SER ASP LYS PRO VAL ALA HIS VAL NH2]",+ (each group contains 10 animals: scored positive if 6 or more survive),,+ (10 animals per group scored positive if 7 or more survive),,
"VRSSSRTPSDKPVAHVVA [Peptide 1, VAL ARG SER SER SER ARG THR PRO SER ASP LYS PRO VAL ALA HIS VAL VAL ALA]",,,,failed to either activate the respiratory burst,failed to either activate the respiratory burst of human neutrophils (Table 5) or to induce procoagulant activity
